Results published in ChEMBL document CHEMBL1201862, “PubChem BioAssay data set” (2004).
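Method: 48-hour compound exposure of cells in 96-well plates, five concentrations, linear interpolation of endpoints. GI50 = concentration required for 50% inhibition of growth.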 Calls of active or inactive are those of the source. Rule as the data show it: active = GI50 up to about 1.1 µM and inactive = higher.

Tests used:
Assay in all cases: NCI-60 cell line screen, 48 h
BT-549 = test system: BT-549
CAKI-1 = test system: CAKI-1
HCT-116 = test system: HCT-116
M14 = test system: M14
OVCAR-5 = test system: OVCAR-5
SF-539 = test system: SF-539
SNB-19 = test system: SNB-19
SNB-75 = test system: SNB-75
UO-31 = test system: UO-31

Measured: GI50

COc1cccc2c1[C@H](OC)[C@]13O[C@@]1(C2=O)[C@H](O)[C@H](C)[C@@](O)(C(=O)[C@@H]1O[C@H]1C)[C@@H]3O
active: BT-549 289 nM | CAKI-1 273 nM | HCT-116 318 nM | M14 221 nM | OVCAR-5 297 nM | SF-539 271 nM | SNB-19 286 nM | SNB-75 233 nM | UO-31 249 nM
